From the supplement of paper PMC10307832

Assays:
Test in all cases: relative viability (nuclei count vs DMSO), 5 days (fraction); higher = more cells survive
[1] = compound: CC1=CC(=C(N1C2=CC=C(C=C2)Cl)C)C(=O)CN3CCCCC3 [IU1-47] + Cc1nc(Nc2ncc(C(=O)Nc3c(C)cccc3Cl)s2)cc(N2CCN(CCO)CC2)n1 [Dasatinib] (partner 0.075 µM)
Summary of the method: (§1)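 For relative viability, nuclei counts in treated wells were divided by those in vehicle wells. Lung cancer cell lines had been pin-tool dosed in 1536-well plates the day after seeding and cultured for 5 days, then fixed and stained in one step (final 0.05% Triton X-100, 1% formaldehyde, 1 ug/ml Hoechst) and imaged at 4×. Doses were one drug alone or a fixed anchor-drug dose plus five library-drug doses (not always all listed) in √10 steps, and values are duplicate-plate medians.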

[2] = compound: Cc1nc(C(=O)NCC(=O)O)c(O)c2ccc(Oc3ccccc3)cc12 [FG-4592] + N=C(N)NC(=N)NCCc1ccccc1 [Phenformin] (partner 250 µM)
Summary of the method: as §1

[3] = compound: Cc1nc(C(=O)NCC(=O)O)c(O)c2ccc(Oc3ccccc3)cc12 [FG-4592] + COc1cc2c(Oc3ccc(NC(=O)C4(C(=O)Nc5ccc(F)cc5)CC4)cc3F)ccnc2cc1OCCCN1CCOCC1 [Foretinib] (partner 0.25 µM)
Summary of the method: as §1

[4] = compound: CC1=CC(=C(N1C2=CC=C(C=C2)Cl)C)C(=O)CN3CCCCC3 [IU1-47] + Cc1nc(NC(=O)N2CCC[C@H]2C(N)=O)sc1-c1ccnc(C(C)(C)C(F)(F)F)c1 [Alpelisib] (partner 2 µM)
Summary of the method: as §1

Cell Line | relative viability ([1]; first compound 0.08 µM) | relative viability ([1]; first compound 0.253 µM) | relative viability ([1]; first compound 0.8 µM) | relative viability ([1]; first compound 2.53 µM) | relative viability ([1]; first compound 8 µM) | relative viability ([2]; first compound 0.08 µM) | relative viability ([2]; first compound 0.253 µM) | relative viability ([2]; first compound 0.8 µM) | relative viability ([2]; first compound 2.53 µM) | relative viability ([2]; first compound 8 µM) | relative viability ([3]; first compound 0.08 µM) | relative viability ([3]; first compound 0.253 µM) | relative viability ([3]; first compound 0.8 µM) | relative viability ([3]; first compound 2.53 µM) | relative viability ([3]; first compound 8 µM) | relative viability ([4]; first compound 0.08 µM) | relative viability ([4]; first compound 0.253 µM) | relative viability ([4]; first compound 0.8 µM) | relative viability ([4]; first compound 2.53 µM) | relative viability ([4]; first compound 8 µM)
ChaGo-K-1 | 0.524 | 0.557 | 0.707 | 0.643 | 0.544 | 0.525 | 0.478 | 0.44 | 0.466 | 0.492 | 0.997 | 0.834 | 0.919 | 0.973 | 0.897 | – | – | – | – | –
EBC-1 | – | – | – | – | – | – | – | – | – | – | 0.11 | 0.0946 | 0.106 | 0.0866 | 0.1 | 0.863 | 0.742 | 0.805 | 0.722 | 0.676
EKVX | 0.564 | 0.577 | 0.691 | 0.34 | 0.389 | 0.205 | 0.237 | 0.224 | 0.221 | 0.262 | 0.744 | 0.804 | 0.773 | 0.717 | 1.04 | 1.21 | 1.08 | 1.04 | 1.12 | 0.741
EMC-BAC-2 | 0.373 | 0.336 | 0.356 | 0.324 | 0.326 | 0.496 | 0.516 | 0.414 | 0.509 | 0.454 | 0.997 | 0.995 | 1.01 | 1.06 | 0.977 | 0.768 | 0.824 | 0.793 | 0.749 | 0.711
EPLC-272H | 0.371 | 0.459 | 0.322 | – | 0.35 | 0.323 | 0.237 | 0.268 | 0.274 | 0.31 | 0.755 | 0.738 | 0.521 | 0.706 | 0.641 | 0.888 | 0.834 | 0.859 | – | 0.953
H3255 | 0.371 | 0.491 | 0.385 | 0.366 | 0.387 | 0.359 | 0.345 | 0.361 | 0.33 | 0.323 | 0.848 | 0.752 | 0.881 | 0.903 | 0.947 | 0.696 | 0.708 | 0.754 | 0.818 | 0.671
HARA | 0.273 | 0.184 | 0.325 | – | 0.276 | 0.412 | 0.394 | 0.512 | 0.509 | 0.477 | 0.834 | 0.87 | 0.896 | 0.885 | 0.878 | 1.02 | 1.13 | 0.925 | 1.1 | 0.604
HCC-15 | 0.687 | 0.749 | 0.685 | 0.564 | 0.519 | 0.524 | 0.424 | 0.533 | 0.462 | 0.503 | 1.03 | 0.978 | 1.04 | 0.93 | 1.07 | 0.99 | 0.926 | 0.978 | 0.825 | 0.82
HCC-44 | – | – | – | – | – | 0.107 | 0.184 | – | 0.145 | 0.151 | – | – | – | – | – | 0.942 | 0.822 | 0.783 | 0.825 | 0.78
